# How the values were obtained:
# mouse sperm [1] = test: Mouse in vitro fertilization with treated sperm, sex of blastocyst embryos by real-time PCR; assay type: cell-based; details: sperm treated with R848 3 nM
# Procedure: Sperm were collected from the cauda epididymis of 12-week-old mature male mice. The mouse sperm were cultured in modified HTF medium (Glu medium, pH 7.8, supplemented with R848 (3 nM)) (60 minutes, 37° C.). In vitro fertilization was performed using sperm cultured in the same manner as in Experiment 7. Five days later, sperm that reached blastocyst embryos were collected, and the ratio between X-sperm and Y-sperm was calculated by real-time PCR.
# pig sperm = test: Pig artificial insemination with treated semen, sex of offspring; assay type: in vivo; details: semen treated in modified HTF medium pH 7.8, R848 3 nM, 60 minutes, 37° C.
# Procedure: Pig semen diluted to 5 billion/100 mL with Hiro Swine B solution was centrifuged (500 G, 5 minutes, room temperature), and then the supernatant was discarded. The pig sperm were suspended in the same amount of modified HTF medium (pH 7.8, supplemented with R848 (3 nM)), and then cultured in a thermostat (60 minutes, 37° C.). Thereafter, centrifugation (500 G, 5 minutes, room temperature) was carried out, and the supernatant was discarded. Subsequently, the sperm were suspended in a diluent for artificial insemination, and then subjected to artificial insemination.
# bovine sperm [2] = test: X-sperm/Y-sperm ratio of bovine lower-layer sperm by fluorescence in situ hybridization; assay type: cell-based; details: freeze-thawed bovine sperm, Glu medium pH 7.7, R848 3 nM, swim-up, FISH, FIG. 8
# bovine sperm [3] = test: Bovine in vitro fertilization with upper-layer sperm, sex identification of blastocyst embryos by real-time PCR; assay type: cell-based; details: modified HTF medium pH 7.4, R848 3 nM, 30 minutes room temperature, FIG. 9
# Procedure: Freeze-thawed bovine sperm, thawed and washed in modified HTF medium, were cultured in modified HTF medium (pH 7.4, supplemented with R848 (3 nM)) (30 minutes, room temperature). Centrifugation was carried out, and then the supernatant was discarded. Subsequently, the sperm were resuspended in modified HTF medium supplemented with 1% PVP and R848 (3 nM), and then placed under PVP-free modified HTF medium to form a lower layer. Fifteen minutes later, 1.5 mL of the upper layer was collected, washed, and then subjected to in vitro fertilization. Thereafter, the resulting blastocyst embryos were subjected to sex identification by real-time PCR.
# mouse sperm [4] = test: Mouse artificial insemination with treated sperm, sex of blastocyst embryos; assay type: in vivo; details: sperm treated with R848 3 nM, Glu medium pH 7.8, 60 minutes, 5/6 embryos
# Procedure: Sperm were collected from the cauda epididymis of 12-week-old mature male mice. The mouse sperm were cultured in modified HTF medium (Glu medium, pH 7.8, supplemented with R848 (3 nM)) (60 minutes, 37° C.). Sperm cultured in the same manner as in Experiment 7 were subjected to artificial insemination, and the resulting blastocyst embryos were collected. As a result, 83.3% (5/6) of the embryos were female embryos.
# bovine sperm [5] = test: Acrosome retention rate of bovine sperm after culture and swim-up; assay type: cell-based; details: freeze-thawed bovine sperm, Glu medium pH 7.7, R848 3 nM, 30 minutes room temperature, swim-up from 1% PVP 15 minutes; FIG. 7
# Procedure: Freeze-thawed bovine sperm, thawed and washed in modified HTF medium, were cultured in modified HTF medium (Glu medium, pH 7.7, supplemented with R848 (3 nM)) (30 minutes, room temperature). Centrifugation was carried out, and then the supernatant was discarded. Subsequently, the sperm were resuspended in modified HTF medium supplemented with 1% PVP and R848 (3 nM), and then placed under PVP-free modified HTF medium to form a lower layer. Fifteen minutes later, 1.5 mL of the upper layer and 0.5 mL of the lower layer were collected. Each layer was subjected to acrosome staining, and the acrosome retention rate was determined.
# [6] = blastocyst embryos after five days, Glu medium pH 7.8, 22 individuals
smiles,measurement,setting,value
"CCOCc1nc2c(N)nc3ccccc3c2n1CC(C)(C)O [R848, resiquimod]",Female (number of embryos),mouse sperm [1]; [6],17
same,Male (number of embryos),mouse sperm [1]; [6],5
same,Female ratio,"mouse sperm [1]; blastocyst embryos, Glu medium pH 7.8",77%
same,Female ratio,pig sperm,64%
same,Female (number of individuals),pig sperm; 36 individuals,23
same,Male (number of individuals),pig sperm; 36 individuals,13
same,Y-sperm among the sperm in the lower layer,bovine sperm [2],84%
same,XX embryos (female embryos) among blastocyst embryos,bovine sperm [3],91%
same,female embryos among blastocyst embryos,mouse sperm [4],83.3%
same,acrosome retention rate of the sperm in the upper layer,bovine sperm [5],70%
